Reference: ChEMBL document CHEMBL1151503, “Synthesis of novel ellipticine analogues and their inhibition of Moloney leukaemia reverse transcriptase” (Bioorg Med Chem Lett, 1996)

Experiments:
Design in all cases: scale not given: the % may be the effect or the level left
[1] = system: Moloney murine leukemia virus reverse transcriptase; test: Compound was evaluated for inhibition of against moloney leukemia reverse transcriptase at concentration 0.1 mg/mL
[2] = system: Moloney murine leukemia virus reverse transcriptase; test: Compound was evaluated for inhibition of against moloney leukemia reverse transcriptase at concentration 0.01 mg/mL
[3] = system: Moloney murine leukemia virus reverse transcriptase; test: Compound was evaluated for inhibition of against moloney leukemia reverse transcriptase at concentration 0 mg/ml
[4] = system: Moloney murine leukemia virus reverse transcriptase; test: Compound was evaluated for inhibition of against moloney leukemia reverse transcriptase at concentration 0.08 mg/mL
[5] = system: Moloney murine leukemia virus reverse transcriptase; test: Compound was evaluated for inhibition of against moloney leukemia reverse transcriptase at concentration 0.02 mg/mL
[6] = system: Moloney murine leukemia virus reverse transcriptase; test: Compound was evaluated for inhibition of against moloney leukemia reverse transcriptase at concentration 0.04 mg/mL

Control [1] | Control [2] | Control [3] | Control [4] | Control [5] | Control [6] | SMILES
2% | 78% | 100% | 1% | 30% | 3% | Cn1c2ccc(Cl)cc2c2cc3ccccc3c[n+]21
2% | 48% | 100% | 1% | 30% | 3% | Cn1c2ccccc2c2cc3ccccc3c[n+]21
